Data on eight compounds can be found in patent US9790230B2 (Hoffmann-La Roche Inc., priority 2015, dated 2017).

Read-outs that look alike come from different tables or passages of the source.

The target of one test is rat TAAR1 (Rattus norvegicus (Rat), UniProt Q923Y9). Put plainly: Radioligand binding assay on rat TAAR1.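 Further: membranes from HEK293 cells stably transfected with rat TAAR1, tritiated TAAR1 radioligand, 1 h incubation at 4 °C, nonspecific binding determined with excess unlabeled ligand.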
rat TAAR1, sequence (Q923Y9 whole entry): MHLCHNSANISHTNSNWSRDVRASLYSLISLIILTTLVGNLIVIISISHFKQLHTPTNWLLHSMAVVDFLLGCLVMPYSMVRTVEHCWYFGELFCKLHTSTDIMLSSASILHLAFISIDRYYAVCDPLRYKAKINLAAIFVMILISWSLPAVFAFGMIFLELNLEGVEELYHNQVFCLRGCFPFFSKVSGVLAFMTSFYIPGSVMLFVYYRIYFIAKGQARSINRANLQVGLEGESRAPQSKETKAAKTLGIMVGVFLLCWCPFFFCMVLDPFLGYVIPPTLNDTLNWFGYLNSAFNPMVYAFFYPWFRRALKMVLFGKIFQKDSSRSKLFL
For a further test, the target named is mouse TAAR1 (Mus musculus (Mouse), UniProt Q923Y8). Put plainly: Radioligand binding assay on mouse TAAR1.
mouse TAAR1, sequence (Q923Y8 whole entry): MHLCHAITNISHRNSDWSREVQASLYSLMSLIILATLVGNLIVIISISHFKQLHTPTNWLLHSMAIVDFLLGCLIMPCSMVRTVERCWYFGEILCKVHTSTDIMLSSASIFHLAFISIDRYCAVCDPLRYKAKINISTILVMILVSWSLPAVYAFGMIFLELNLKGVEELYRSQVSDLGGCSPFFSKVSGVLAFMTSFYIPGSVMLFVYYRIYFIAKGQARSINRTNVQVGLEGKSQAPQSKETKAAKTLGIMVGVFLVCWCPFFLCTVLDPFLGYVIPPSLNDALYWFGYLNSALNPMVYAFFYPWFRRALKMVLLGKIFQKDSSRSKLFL

Procedure for rat TAAR1: Membrane Preparation and Radioligand Binding.
HEK-293 cells stably expressing rat TAAR1 were maintained at 37° C. and 5% CO2 in DMEM high glucose medium, containing fetal calf serum (10%, heat inactivated for 30 min at 56° C.), penicillin/streptomycin (1%), and 375 μg/ml geneticin (Gibco). Cells were released from culture flasks using trypsin/EDTA, harvested, washed twice with ice-cold PBS (without Ca^2+ and Mg^2+), pelleted at 1'000 rpm for 5 min at 4° C., frozen and stored at −80° C. Frozen pellets were suspended in 20 ml HEPES-NaOH (20 mM, pH 7.4) containing 10 mM EDTA and homogenized with a Polytron (PT 6000, Kinematica) at 14′000 rpm for 20 s. The homogenate was centrifuged at 48'000×g for 30 min at 4° C. Subsequently, the supernatant was removed and discarded, and the pellet resuspended in 20 ml HEPES-NaOH (20 mM, pH 7.4) containing 0.1 mM EDTA using the Polytron (20 s at 14'000 rpm). This procedure was repeated and the final pellet resuspended in HEPES-NaOH containing 0.1 mM EDTA and homogenized using the Polytron. Typically, aliquots of 2 ml membrane portions were stored at −80° C. With each new membrane batch the dissociation constant (Kd) was determined via a saturation curve. […] Nonspecific binding was defined as the amount of 3 [H]—(S)-4-[(ethyl-phenyl-amino)-methyl]-4,5-dihydro-oxazol-2-ylamine bound in the presence of 10 M unlabeled ligand. All compounds were tested at a broad range of concentrations (10 pM to 10 μM) in duplicates. […] The 96 deep well plates were incubated for 1 hr at 4° C. Incubations were terminated by rapid filtration through Unifilter-96 plates (Packard Instrument Company) and glass filters GF/C (Perkin Elmer) presoaked for 1 hr in polyethylenimine (0.3%) and washed 3 times with 1 ml of cold binding buffer. After addition of 45 μl of Microscint 40 (PerkinElmer) the Unifilter-96 plate was sealed and after 1 hr the radioactivity counted using a TopCount Microplate Scintillation Counter (Packard Instrument Company).

`CCCc1n[nH]c(C(=O)Nc2ccc([C@@H]3O[C@H]4CN[C@@H]3C4)cc2)c1F` [Example 78, 4-Fluoro-N-[4-[(1R,3S,4R)-2-oxa-5-azabicyclo[2.2.1]heptan-3-yl]phenyl]-3-propyl-1H-pyrazole-5-carboxamide]: the values for the Ki at rat TAAR1 and at mouse TAAR1 were 0.103 µM and 0.0042 µM, respectively.
The corresponding values for `O=C(CCC(F)(F)F)Nc1ccc([C@H]2O[C@@H]3CN[C@H]2C3)cc1` [Example 84, 4,4,4-Trifluoro-N-[4-[(1S,3R,4S)-2-oxa-5-azabicyclo[2.2.1]heptan-3-yl]phenyl]butanamide] are more than 15 µM and 0.0172 µM.
For the compound `CCCc1c(Cl)c(C(=O)Nc2ccc([C@H]3O[C@@H]4CN[C@H]3C4)cc2)nn1C` [Example 48, 4-Chloro-1-methyl-N-[4-[(1S,3R,4S)-2-oxa-5-azabicyclo[2.2.1]heptan-3-yl]phenyl]-5-propyl-pyrazole-3-carboxamide], the Ki came to 1.35 µM on rat TAAR1 and 0.0114 µM at mouse TAAR1.
Consider `O=C(Nc1ccc([C@@H]2O[C@H]3CN[C@@H]2C3)cc1)c1ccc(Cl)cc1` [Example 7, 4-Chloro-N-[4-[(1R,3S,4R)-2-oxa-5-azabicyclo[2.2.1]heptan-3-yl]phenyl]benzamide], for which the inhibitory constant (Ki) was found to be 0.106 µM at rat TAAR1 and 0.0044 µM at mouse TAAR1.
In the case of `CC(C)c1n[nH]c(C(=O)Nc2ccc([C@@H]3O[C@H]4CN[C@@H]3C4)cc2)c1F` [Example 103, 4-Fluoro-3-isopropyl-N-[4-[(1R,3S,4R)-2-oxa-5-azabicyclo[2.2.1]heptan-3-yl]phenyl]-11H-pyrazole-5-carboxamide], the Ki was determined as 0.0405 µM on rat TAAR1 (read-out: Ki (μM) rat, rat TAAR1, HEK-293 membranes, second value of cell mouse/rat) and 0.0096 µM at mouse TAAR1 (read-out: Ki (μM) mouse, mouse TAAR1, HEK-293 membranes, first value of cell mouse/rat).
For `CC(C)Cc1cc(C(=O)Nc2ccc([C@@H]3O[C@H]4CN[C@@H]3C4)cc2)[nH]n1` [Example 101, 3-Isobutyl-N-[4-[(1R,3S,4R)-2-oxa-5-azabicyclo[2.2.1]heptan-3-yl]phenyl]-1H-pyrazole-5-carboxamide], the results for the Ki at rat TAAR1 and at mouse TAAR1 were 0.0807 µM and 0.0057 µM, respectively.
Consider `FC(F)(F)c1ccc(Nc2ccc([C@@H]3O[C@H]4CN[C@@H]3C4)cc2)nc1` [Example 11, N-[4-[(1R,3S,4R)-2-Oxa-5-azabicyclo[2.2.1]heptan-3-yl]phenyl]-5-(trifluoromethyl)pyridin-2-amine], for which the Ki was 0.0153 µM at rat TAAR1 and 0.0039 µM on mouse TAAR1.
For `O=C(Nc1ccc(Br)cc1)c1ccc([C@@H]2O[C@H]3CN[C@@H]2C3)cc1` [Example 86, N-(4-Bromophenyl)-4-[(1R,3S,4R)-2-oxa-5-azabicyclo[2.2.1]heptan-3-yl]benzamide], the results for the Ki at rat TAAR1 and at mouse TAAR1 were 0.809 µM and 0.0102 µM, respectively.
